From the kinase profiling compilation of Christmann-Franck et al. (2016)

Legend:
Test in all cases: radiometric filter-binding kinase assay, Kinase HotSpot
Conditions in all cases: compound 0.5 µM; ATP 10 µM
[1] = target: SRPK3 (human) (UniProt Q9UPE1)
[2] = target: PRKD2 (human) (UniProt Q9BZL6)
[3] = target: EPHA8 (human) (UniProt P29322)
[4] = target: RPS6KB1 (human) (UniProt P23443)
[5] = target: NEK3 (human) (UniProt P51956)
[6] = target: GRK5 (human) (UniProt P34947)
[7] = target: CAMK2D (human) (UniProt Q13557)
[8] = target: ROCK2 (human) (UniProt O75116)
[9] = target: PASK (human) (UniProt Q96RG2)
Chain of PASK (human) (Q96RG2 whole entry, looked up): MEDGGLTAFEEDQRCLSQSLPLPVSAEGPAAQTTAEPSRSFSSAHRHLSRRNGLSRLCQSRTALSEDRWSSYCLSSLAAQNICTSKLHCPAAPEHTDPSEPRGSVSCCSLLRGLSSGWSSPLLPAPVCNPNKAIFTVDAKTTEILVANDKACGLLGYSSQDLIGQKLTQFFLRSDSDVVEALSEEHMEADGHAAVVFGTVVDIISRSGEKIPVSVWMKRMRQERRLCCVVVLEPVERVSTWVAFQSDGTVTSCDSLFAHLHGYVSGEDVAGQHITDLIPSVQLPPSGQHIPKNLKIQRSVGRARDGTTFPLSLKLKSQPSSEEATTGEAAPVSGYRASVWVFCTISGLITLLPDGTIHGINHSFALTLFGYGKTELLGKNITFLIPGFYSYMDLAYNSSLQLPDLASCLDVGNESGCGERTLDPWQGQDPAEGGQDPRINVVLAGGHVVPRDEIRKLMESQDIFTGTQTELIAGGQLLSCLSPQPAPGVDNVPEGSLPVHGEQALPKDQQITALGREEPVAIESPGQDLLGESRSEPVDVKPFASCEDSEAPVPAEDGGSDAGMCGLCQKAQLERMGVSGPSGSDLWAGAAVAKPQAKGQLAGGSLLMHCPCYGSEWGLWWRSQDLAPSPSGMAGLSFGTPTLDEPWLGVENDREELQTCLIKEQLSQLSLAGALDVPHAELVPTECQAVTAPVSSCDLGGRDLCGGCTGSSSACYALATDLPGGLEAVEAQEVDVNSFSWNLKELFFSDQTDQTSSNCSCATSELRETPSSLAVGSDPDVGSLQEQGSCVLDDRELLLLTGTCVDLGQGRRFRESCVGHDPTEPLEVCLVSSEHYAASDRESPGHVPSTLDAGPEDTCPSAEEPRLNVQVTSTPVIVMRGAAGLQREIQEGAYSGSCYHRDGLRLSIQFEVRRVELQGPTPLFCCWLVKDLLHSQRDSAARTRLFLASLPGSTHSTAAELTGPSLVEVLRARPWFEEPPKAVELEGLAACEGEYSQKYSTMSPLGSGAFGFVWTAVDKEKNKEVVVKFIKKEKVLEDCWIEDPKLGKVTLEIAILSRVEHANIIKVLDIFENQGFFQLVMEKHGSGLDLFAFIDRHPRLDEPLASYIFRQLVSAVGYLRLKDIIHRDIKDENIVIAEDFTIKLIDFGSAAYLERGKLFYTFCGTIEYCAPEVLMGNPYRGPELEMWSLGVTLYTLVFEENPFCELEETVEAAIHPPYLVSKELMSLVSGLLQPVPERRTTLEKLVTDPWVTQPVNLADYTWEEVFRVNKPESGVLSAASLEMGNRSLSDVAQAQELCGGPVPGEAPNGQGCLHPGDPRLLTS

[10] = target: MAPKAPK5 (human) (UniProt Q8IW41)
[11] = target: PRKCB2 (human) (UniProt P05771)
[12] = target: STK4 (human) (UniProt Q13043)
[13] = target: GRK7 (human) (UniProt Q8WTQ7)
[14] = target: ABL1 (human) (UniProt P00519)
[15] = target: NEK7 (human) (UniProt Q8TDX7)
Chain of NEK7 (human) (Q8TDX7 whole entry, looked up): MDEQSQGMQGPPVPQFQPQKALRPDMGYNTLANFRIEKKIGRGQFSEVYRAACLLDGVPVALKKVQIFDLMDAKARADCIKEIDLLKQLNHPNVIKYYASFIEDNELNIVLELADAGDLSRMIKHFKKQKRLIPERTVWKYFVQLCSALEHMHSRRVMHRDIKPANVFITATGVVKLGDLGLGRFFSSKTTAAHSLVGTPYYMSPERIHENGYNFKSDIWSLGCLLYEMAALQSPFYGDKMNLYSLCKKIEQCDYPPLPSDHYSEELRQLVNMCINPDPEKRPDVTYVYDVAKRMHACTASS

[16] = target: ITK (human) (UniProt Q08881)
[17] = target: PLK2 (human) (UniProt Q9NYY3)
[18] = target: ADRBK2 (human) (UniProt P35626)
[19] = target: PHKG1 (human) (UniProt Q16816)
Chain of PHKG1 (human) (Q16816 whole entry, looked up): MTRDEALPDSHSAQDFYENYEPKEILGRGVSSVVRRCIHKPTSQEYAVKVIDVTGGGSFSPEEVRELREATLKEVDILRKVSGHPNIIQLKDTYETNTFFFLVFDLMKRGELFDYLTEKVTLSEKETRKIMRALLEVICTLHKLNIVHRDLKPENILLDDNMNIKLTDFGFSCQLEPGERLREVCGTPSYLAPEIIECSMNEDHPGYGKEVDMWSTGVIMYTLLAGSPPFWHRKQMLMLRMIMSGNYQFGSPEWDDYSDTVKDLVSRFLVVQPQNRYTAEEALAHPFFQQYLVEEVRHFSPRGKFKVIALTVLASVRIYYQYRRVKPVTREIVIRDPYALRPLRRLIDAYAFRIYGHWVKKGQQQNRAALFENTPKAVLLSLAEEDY

[20] = target: EPHB2 (human) (UniProt P29323)
[21] = target: PRKD1 (human) (UniProt Q15139)
[22] = target: TYRO3 (human) (UniProt Q06418)
[23] = target: LCK (human) (UniProt P06239)
[24] = target: EPHB1 (human) (UniProt P54762)
[25] = target: NTRK1 (human) (UniProt P04629)
Chain of NTRK1 (human) (P04629 whole entry, looked up): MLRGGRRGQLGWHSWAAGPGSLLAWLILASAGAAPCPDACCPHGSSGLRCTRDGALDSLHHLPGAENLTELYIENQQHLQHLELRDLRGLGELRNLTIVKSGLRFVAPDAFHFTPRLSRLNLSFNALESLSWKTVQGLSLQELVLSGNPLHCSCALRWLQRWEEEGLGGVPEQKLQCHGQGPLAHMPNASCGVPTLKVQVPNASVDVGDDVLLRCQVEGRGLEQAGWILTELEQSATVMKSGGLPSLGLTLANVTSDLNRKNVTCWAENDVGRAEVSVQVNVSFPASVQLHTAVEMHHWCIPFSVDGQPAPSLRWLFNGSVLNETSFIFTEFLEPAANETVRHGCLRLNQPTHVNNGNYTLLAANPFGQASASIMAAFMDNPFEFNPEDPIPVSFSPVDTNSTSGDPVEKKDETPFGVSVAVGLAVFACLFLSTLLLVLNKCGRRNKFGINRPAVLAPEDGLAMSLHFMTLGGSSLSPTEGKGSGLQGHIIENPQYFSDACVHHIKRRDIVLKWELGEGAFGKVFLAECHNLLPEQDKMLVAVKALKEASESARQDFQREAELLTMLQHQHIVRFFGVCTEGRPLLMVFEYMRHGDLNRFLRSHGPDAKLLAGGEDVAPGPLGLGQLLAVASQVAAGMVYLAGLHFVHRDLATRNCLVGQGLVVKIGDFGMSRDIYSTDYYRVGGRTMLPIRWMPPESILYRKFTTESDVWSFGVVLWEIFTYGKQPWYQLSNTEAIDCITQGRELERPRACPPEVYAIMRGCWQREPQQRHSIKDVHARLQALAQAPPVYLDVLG

[26] = target: PAK4 (human) (UniProt O96013)
[27] = target: SGK3 (human) (UniProt Q96BR1)
Chain of SGK3 (human) (Q96BR1 whole entry, looked up): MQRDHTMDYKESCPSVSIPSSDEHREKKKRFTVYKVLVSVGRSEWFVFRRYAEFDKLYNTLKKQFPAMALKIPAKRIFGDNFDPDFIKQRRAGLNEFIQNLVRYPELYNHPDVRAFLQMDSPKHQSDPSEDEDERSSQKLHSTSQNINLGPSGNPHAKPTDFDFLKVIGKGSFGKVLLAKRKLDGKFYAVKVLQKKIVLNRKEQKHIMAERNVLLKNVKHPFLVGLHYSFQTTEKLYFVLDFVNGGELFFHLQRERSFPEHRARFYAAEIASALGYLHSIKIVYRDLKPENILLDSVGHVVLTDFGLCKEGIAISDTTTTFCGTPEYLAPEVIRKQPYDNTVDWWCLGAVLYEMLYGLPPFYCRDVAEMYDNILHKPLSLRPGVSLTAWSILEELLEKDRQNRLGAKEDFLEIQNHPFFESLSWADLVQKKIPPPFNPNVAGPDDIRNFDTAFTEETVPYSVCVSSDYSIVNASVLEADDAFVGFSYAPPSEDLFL

[28] = target: CLK1 (human) (UniProt P49759)
[29] = target: MAP2K1 (human) (UniProt Q02750)
[30] = target: PDPK1 (human) (UniProt O15530)
[31] = target: LTK (human) (UniProt P29376)
[32] = target: INSRR (human) (UniProt P14616)
[33] = target: TTK (human) (UniProt P33981)
[34] = target: MST1R (human) (UniProt Q04912)
[35] = target: MARK1 (human) (UniProt Q9P0L2)
[36] = target: RPS6KA3 KD1 KD2 (human) (UniProt P51812)
[37] = target: PRKX (human) (UniProt P51817)
[38] = target: CLK3 (human) (UniProt P49761)
[39] = target: ERBB2 (human) (UniProt P04626)
[40] = target: TAOK1 (human) (UniProt Q7L7X3)
Chain of TAOK1 (human) (Q7L7X3 whole entry, looked up): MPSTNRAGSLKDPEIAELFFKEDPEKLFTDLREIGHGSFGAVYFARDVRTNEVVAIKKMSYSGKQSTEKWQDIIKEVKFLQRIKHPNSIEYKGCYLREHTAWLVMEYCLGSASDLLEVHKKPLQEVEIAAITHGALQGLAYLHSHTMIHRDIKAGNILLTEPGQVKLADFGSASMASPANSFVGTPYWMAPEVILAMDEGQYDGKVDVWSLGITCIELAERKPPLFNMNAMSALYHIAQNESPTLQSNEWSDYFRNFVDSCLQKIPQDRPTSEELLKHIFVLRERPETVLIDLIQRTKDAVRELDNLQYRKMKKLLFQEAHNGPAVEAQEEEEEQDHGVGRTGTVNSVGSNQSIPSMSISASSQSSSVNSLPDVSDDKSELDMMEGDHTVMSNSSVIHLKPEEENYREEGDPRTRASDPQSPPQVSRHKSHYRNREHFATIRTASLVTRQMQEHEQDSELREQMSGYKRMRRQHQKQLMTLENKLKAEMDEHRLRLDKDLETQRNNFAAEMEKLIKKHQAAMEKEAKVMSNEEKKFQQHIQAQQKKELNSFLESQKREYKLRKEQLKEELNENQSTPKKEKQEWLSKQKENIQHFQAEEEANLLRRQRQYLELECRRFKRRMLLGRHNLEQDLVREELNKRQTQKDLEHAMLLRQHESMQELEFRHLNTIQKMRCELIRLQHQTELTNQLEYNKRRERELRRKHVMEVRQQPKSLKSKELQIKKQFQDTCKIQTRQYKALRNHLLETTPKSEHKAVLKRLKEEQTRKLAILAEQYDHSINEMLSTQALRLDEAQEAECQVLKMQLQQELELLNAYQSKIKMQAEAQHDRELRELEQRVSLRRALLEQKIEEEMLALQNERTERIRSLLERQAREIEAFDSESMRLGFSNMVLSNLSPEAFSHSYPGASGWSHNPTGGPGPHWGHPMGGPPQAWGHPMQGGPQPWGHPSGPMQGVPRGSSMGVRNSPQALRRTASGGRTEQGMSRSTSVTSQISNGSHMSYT

[41] = target: TEK (human) (UniProt Q02763)
[42] = target: NEK11 (human) (UniProt Q8NG66)

Chain of GRK5 (human) (P34947 whole entry, looked up): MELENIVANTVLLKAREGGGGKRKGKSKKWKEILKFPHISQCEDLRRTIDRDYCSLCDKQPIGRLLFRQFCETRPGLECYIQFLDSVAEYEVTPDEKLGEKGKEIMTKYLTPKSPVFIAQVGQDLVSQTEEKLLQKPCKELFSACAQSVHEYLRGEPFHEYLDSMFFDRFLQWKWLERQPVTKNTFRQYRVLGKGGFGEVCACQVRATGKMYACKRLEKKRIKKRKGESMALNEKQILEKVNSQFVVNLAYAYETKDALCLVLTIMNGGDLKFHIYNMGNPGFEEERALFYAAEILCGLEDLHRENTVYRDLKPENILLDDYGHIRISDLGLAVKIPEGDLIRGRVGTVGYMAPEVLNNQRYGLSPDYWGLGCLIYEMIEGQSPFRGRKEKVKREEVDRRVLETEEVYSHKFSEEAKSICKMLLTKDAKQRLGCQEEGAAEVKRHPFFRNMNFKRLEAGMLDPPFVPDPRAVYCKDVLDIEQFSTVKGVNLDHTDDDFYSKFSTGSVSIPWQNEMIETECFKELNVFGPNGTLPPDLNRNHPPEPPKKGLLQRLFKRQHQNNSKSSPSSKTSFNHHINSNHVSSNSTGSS

O=C(c1cc2cc(O)ccc2[nH]1)c1cc2cc(O)ccc2[nH]1
residual activity [1]: 99.4%
residual activity [2]: 71.7%
residual activity [3]: 92.9%
residual activity [4]: 85%
residual activity [5]: 111%
residual activity [6]: 104%
residual activity [7]: 63.7%
residual activity [8]: 92.9%
residual activity [9]: 78.7%
residual activity [10]: 89.6%
residual activity [11]: 98.9%
residual activity [12]: 33.7%
residual activity [13]: 99.8%
residual activity [14]: 27.8%
residual activity [15]: 101%
residual activity [16]: 77.7%
residual activity [17]: 102%
residual activity [18]: 102%
residual activity [19]: 72.1%
residual activity [20]: 76.7%
residual activity [21]: 58.5%
residual activity [22]: 76.4%
residual activity [23]: 52%
residual activity [24]: 97%
residual activity [25]: 57.2%
residual activity [26]: 111%
residual activity [27]: 113%
residual activity [28]: 82.1%
residual activity [29]: 103%
residual activity [30]: 97.2%
residual activity [31]: 91.6%
residual activity [32]: 97.1%
residual activity [33]: 92.9%
residual activity [34]: 90.4%
residual activity [35]: 66.3%
residual activity [36]: 37.7%
residual activity [37]: 94.5%
residual activity [38]: 24.8%
residual activity [39]: 113%
residual activity [40]: 85.6%
residual activity [41]: 104%
residual activity [42]: 96.7%

COc1ccc2c(c1)c(C1=C(c3c[nH]c4ccccc34)C(=O)NC1=O)cn2CCCN(C)C
residual activity [1]: 89.5%
residual activity [2]: 92.3%
residual activity [3]: 102%
residual activity [4]: 19.7%
residual activity [5]: 98.3%
residual activity [6]: 114%
residual activity [7]: 74.8%
residual activity [8]: 89.2%
residual activity [9]: 83.8%
residual activity [10]: 98.1%
residual activity [11]: 14.2%
residual activity [12]: 65.2%
residual activity [13]: 106%
residual activity [14]: 107%
residual activity [15]: 99.1%
residual activity [16]: 70.4%
residual activity [17]: 103%
residual activity [18]: 96.3%
residual activity [19]: 66.4%
residual activity [20]: 78.7%
residual activity [21]: 68.8%
residual activity [22]: 90.7%
residual activity [23]: 93.6%
residual activity [24]: 91.7%
residual activity [25]: 83.1%
residual activity [26]: 94.8%
residual activity [27]: 101%
residual activity [28]: 48.2%
residual activity [29]: 85%
residual activity [30]: 76.7%
residual activity [31]: 81.9%
residual activity [32]: 101%
residual activity [33]: 89.9%
residual activity [34]: 91.3%
residual activity [35]: 93.2%
residual activity [36]: 6.55%
residual activity [37]: 102%
residual activity [38]: 43.6%
residual activity [39]: 115%
residual activity [40]: 99.5%
residual activity [41]: 102%
residual activity [42]: 91.6%

CN(C)c1ccc(/C=C2\C(=O)Nc3ccccc32)cc1
residual activity [1]: 98.7%
residual activity [2]: 95.2%
residual activity [3]: 103%
residual activity [4]: 97.1%
residual activity [5]: 95.2%
residual activity [6]: 104%
residual activity [7]: 96.4%
residual activity [8]: 95.2%
residual activity [9]: 95%
residual activity [10]: 98.6%
residual activity [11]: 103%
residual activity [12]: 93.2%
residual activity [13]: 100%
residual activity [14]: 103%
residual activity [15]: 102%
residual activity [16]: 99%
residual activity [17]: 111%
residual activity [18]: 98.9%
residual activity [19]: 99.1%
residual activity [20]: 86.5%
residual activity [21]: 100%
residual activity [22]: 92.7%
residual activity [23]: 93%
residual activity [24]: 102%
residual activity [25]: 96.6%
residual activity [26]: 101%
residual activity [27]: 107%
residual activity [28]: 103%
residual activity [29]: 97.8%
residual activity [30]: 82.3%
residual activity [31]: 96.8%
residual activity [32]: 94.5%
residual activity [33]: 99.7%
residual activity [34]: 106%
residual activity [35]: 97.3%
residual activity [36]: 92.6%
residual activity [37]: 104%
residual activity [38]: 89.4%
residual activity [39]: 91%
residual activity [40]: 94.7%
residual activity [41]: 102%
residual activity [42]: 96.4%

COc1cc2ncnc(Nc3ccc(Oc4ccccc4)cc3)c2cc1OC
residual activity [1]: 94.8%
residual activity [2]: 100%
residual activity [3]: 97.4%
residual activity [4]: 108%
residual activity [5]: 98.4%
residual activity [6]: 97.4%
residual activity [7]: 97.2%
residual activity [8]: 99.3%
residual activity [9]: 104%
residual activity [10]: 98%
residual activity [11]: 92.8%
residual activity [12]: 107%
residual activity [13]: 103%
residual activity [14]: 81.8%
residual activity [15]: 103%
residual activity [16]: 93.6%
residual activity [17]: 104%
residual activity [18]: 91.8%
residual activity [19]: 91.8%
residual activity [20]: 99.7%
residual activity [21]: 95.6%
residual activity [22]: 83.4%
residual activity [23]: 4.72%
residual activity [24]: 108%
residual activity [25]: 101%
residual activity [26]: 98.3%
residual activity [27]: 101%
residual activity [28]: 100%
residual activity [29]: 85.9%
residual activity [30]: 111%
residual activity [31]: 98.3%
residual activity [32]: 102%
residual activity [33]: 90%
residual activity [34]: 95.7%
residual activity [35]: 93.3%
residual activity [36]: 97.8%
residual activity [37]: 95.2%
residual activity [38]: 101%
residual activity [39]: 29.5%
residual activity [40]: 105%
residual activity [41]: 99.7%
residual activity [42]: 74.8%
